# Source: paper PMC10011573, “Development of novel broad-spectrum antimicrobial lipopeptides derived from plantaricin NC8 β” (Scientific Reports, 2023)
# Read-outs that look alike come from different tables or passages of the source. Non-standard residues stand in square brackets, D forms with d. Residues, ends and D or L forms follow the SMILES beside them. No end group written: not given here. *: point of attachment. Heptanoyl = CCCCCCC(=O)*; Pentanoyl = CCCCC(=O)*
# Experiments:
# S. aureus (ATCC 29213) = type: cell-based; settings: ATCC 29213, 20 h
# E. coli (K-12 MG1655) [1] = type: cell-based; settings: K-12, 20 h
# Method: The broth microdilution method was used to determine minimal inhibitory concentration (MIC) and minimal bactericidal concentration (MBC), in accordance with the EUCAST standards for the broth microdilution method. Two-fold serial dilutions of the lipopeptides were used, and the final concentrations ranged from 0.19 to 100 µM. In brief, two-fold serial dilutions of the lipopeptides were performed in a 96-well plate in PBS, with a final volume of 100 µl per well, after which 100 µl of LB-broth media containing approximately 5 × 10^5 CFU/ml of bacteria was added to each well. The plate was then incubated for 20 h in 37 °C on a shaker (400 rpm). The effect of lipopeptide-antibiotic combinations was investigated by performing checkerboard assays. The assays were performed in accordance with the MIC and MBC tests conducted above, but with horizontal and longitudinal two-fold serial dilutions of the tested compounds. […] The fractional inhibitory concentration (FIC) and fractional bactericidal concentration (FBC) were calculated by the equation (MIC or MBC of peptide in combination/MIC or MBC of peptide alone) + (MIC or MBC of antibiotic in combination/MIC or MBC of antibiotic alone). Synergy was defined as FIC/FBC ≤ 0.5, additive when 0.5 < FIC/FBC ≤ 1, indifferent when 1 < FIC/FBC < 2 and antagonistic when FIC/FBC ≥ 2. All experiments were repeated at least three times.
# human erythrocytes = experiment: Hemolytic activity; type: cell-based; settings: 15% suspension in PBS, 1 h, 37 °C, absorbance 540 nm, highest tested concentration 100 µM
# Method: The hemolytic activity of the lipopeptides was investigated by collecting blood from healthy volunteers in heparinized vacutainers. Briefly, the blood was centrifuged at 600 × g for 5 min and the erythrocyte pellet was washed three times in PBS. The cells were then suspended in PBS and added to 96-well plates (15% erythrocyte suspension/well), containing the lipopeptides with two-fold serial dilution. The plates were incubated for 1 h at 37 °C followed by centrifugation for 5 min at 900×g and absorbance measurement of the supernatants at 540 nm. Hemolytic activity (%) was calculated by subtracting the negative control from all values and normalization against the positive control (0.5% Triton X-100), that was set to 100%. All experiments, each in duplicate, were repeated three times.
# [2] = Carboxyfluorescein release assay, bacterial liposome model; type: biochemical; settings: 75:25 POPC:POPG liposomes, 25 µM lipid, 10 mM PBS pH 7.4, 10^–5–10^2 µM peptide, 60 min, fluorescence, Hill fit, n = 3; read-out: EC50 Bacterial (concentration that triggers 50% CF release)
# In short: (§1)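 CF-loaded extruded 0.1 µm unilamellar liposomes: bacterial POPC:POPG 75:25, mammalian POPC:POPS:Chol 65:5:30. Liposomes at 25 µM lipid in PBS pH 7.4 incubated with peptide (10^–5–10^2 µM; n = 3), fluorescence read every 2.5 min for 1 h. Release normalized to 1% Triton X-100; EC50 from Hill-1 fit.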
# [3] = Carboxyfluorescein release assay, mammalian liposome model; type: biochemical; settings: 65:5:30 POPC:POPS:Chol. liposomes, 25 µM lipid, 10 mM PBS pH 7.4, 10^–5–10^2 µM peptide, 60 min, fluorescence, Hill fit, n = 3; read-out: EC50 Mammalial (concentration that triggers 50% CF release)
# In short: as §1
# A. baumannii = settings: 20 h
# E. faecium = settings: 20 h
# E. coli (K-12 MG1655) [4] = tested on: E. coli (K-12 MG1655)
# P. aeruginosa = settings: 20 h
# [5] = tested on: S. aureus (ATCC 29213, MSSA); settings: ATCC 29213, 20 h
# K. pneumoniae = settings: 20 h
# E. cloacae = settings: 20 h
# [6] = Dynamic light scattering, critical aggregation concentration; type: physicochemical; settings: DLS scattering intensity at 90°, 10 mM PBS pH 7.4, serial dilution 100 µM to 0.01 nM, 22 °C, average of 10 runs of 30 s; estimated
# Method: Lipopeptide aggregation was evaluated on a ALV/CGS-8F Platform (ALV-GmbH, Langen, Germany) equipped with a […] He–Ne laser. Scattered light was collected at 90°. PBS (10 mM, pH 7.4) was chosen as buffer, and filtered with a 0.22 µm filter prior to use. The samples were prepared in a cylindrical glass cuvette immersed in refractive-index matching toluene. The peptides were serially diluted between 100 µM and 0.01 nM, sonicated for 1 min and incubated for 5 min at 22 °C and vortexed prior to measuring. The temperature was controlled throughout the experiment with the use of a circulating water bath. Data were analysed with ALV-Correlator (Version 3.0, ALV-GmbH, Langen, Germany) software, and the scattering intensity was obtained through an average of 10 consecutive 30 s runs.
# [7] = Table 3, K-12 MG1655, broth microdilution, 50:50 PBS/LB-broth, 200 µL, 20 h, 37 °C
Compound,"S. aureus MIC, lipopeptide alone (S. aureus (ATCC 29213))","E. coli MIC, lipopeptide alone (E. coli (K-12 MG1655) [1])","HC, hemolytic concentration at 5% hemolytic activity (human erythrocytes)",EC50 [2],EC50 [3],MBC (A. baumannii),MIC (A. baumannii),MBC (E. faecium),MIC (E. faecium),E. coli MBC (E. coli (K-12 MG1655) [4]; [7]),E. coli MIC (E. coli (K-12 MG1655) [4]; [7]),MBC (P. aeruginosa),MIC (P. aeruginosa),S. aureus MBC [5],S. aureus MIC [5],MBC (K. pneumoniae),MIC (K. pneumoniae),MBC (E. cloacae),MIC (E. cloacae),critical aggregation concentration (CAC) [6],other results
CCCCC(=O)N[C@H](CC(C)C)C(=O)NCC(=O)N[C@H](CC(C)C)C(=O)N[C@H](CCCCN)C(=O)N[C@H](CC(C)C)C(=O)N[C@H](CC(C)C)C(=O)N[C@H](Cc1c[nH]c2ccccc12)C(=O)N[C@H](CO)C(=O)N[C@H](C)C(=O)N[C@H](Cc1ccc(O)cc1)C(=O)N[C@H](CCCCN)C(=O)N[C@H](Cc1c[nH]cn1)C(=O)N[C@H](CCCNC(=N)N)C(=O)N[C@H](CCCCN)C(=O)N[C@@H](C(=O)N[C@H](CC(C)C)C(N)=O)[C@H](C)O [D-6-C5-Leu] (Pentanoyl-[dL]G[dL][dK][dL][dL][dW][dS][dA][dY][dK][dH][dR][dK][dT][dL]-NH2),3.1 µM,3.1 µM,> 100 µM,130 nM,4080 nM,3.1 µM,3.1 µM,3.1 µM,3.1 µM,3.1 µM,3.1 µM,25 µM,12.5 µM,3.1 µM,3.1 µM,25 µM,12.5 µM,50 µM,25 µM,–,"S. aureus MBC, lipopeptide alone (S. aureus (ATCC 29213)): 3.1 µM; E. coli MBC, lipopeptide alone (E. coli (K-12 MG1655) [1]): 3.1 µM"
CCCCC(=O)N[C@H](CC(C)C)C(=O)NCC(=O)N[C@@H](C(=O)N[C@H](CCCCN)C(=O)N[C@@H](C(=O)N[C@H](CC(C)C)C(=O)N[C@H](Cc1c[nH]c2ccccc12)C(=O)N[C@H](CO)C(=O)N[C@H](C)C(=O)N[C@H](Cc1ccc(O)cc1)C(=O)N[C@H](CCCCN)C(=O)N[C@H](Cc1c[nH]cn1)C(=O)N[C@H](CCCNC(=N)N)C(=O)N[C@H](CCCCN)C(=O)N[C@@H](C(=O)N[C@@H](C(N)=O)[C@H](C)CC)[C@H](C)O)[C@H](C)CC)[C@H](C)CC [D-6-C5] (Pentanoyl-[dL]G[dI][dK][dI][dL][dW][dS][dA][dY][dK][dH][dR][dK][dT][dI]-NH2),3.1 µM,3.1 µM,> 100 µM,120 nM,13100 nM,3.1 µM,3.1 µM,3.1 µM,3.1 µM,3.1 µM,3.1 µM,50 µM,25 µM,6.2 µM,3.1 µM,50 µM,25 µM,50 µM,25 µM,–,–
CCCCCCC(=O)N[C@@H](CC(C)C)C(=O)NCC(=O)N[C@H](C(=O)N[C@@H](CCCCN)C(=O)N[C@H](C(=O)N[C@@H](CC(C)C)C(=O)N[C@@H](Cc1c[nH]c2ccccc12)C(=O)N[C@@H](CO)C(=O)N[C@@H](C)C(=O)N[C@@H](Cc1ccc(O)cc1)C(=O)N[C@@H](CCCCN)C(=O)N[C@@H](Cc1c[nH]cn1)C(=O)N[C@@H](CCCNC(=N)N)C(=O)N[C@@H](CCCCN)C(=O)N[C@H](C(=O)N[C@H](C(N)=O)[C@@H](C)CC)[C@@H](C)O)[C@@H](C)CC)[C@@H](C)CC [L-6-C7] (Heptanoyl-LGIKILWSAYKHRKTI-NH2),–,–,80 µM,220 nM,1950 nM,–,–,–,–,6.2 µM,6.2 µM,–,–,3.1 µM,3.1 µM,–,–,–,–,0.8 µM,–
LGIKILWSAYKHRKTI-NH2 [L-6],–,–,–,150 nM,> 100000 nM,–,–,–,–,–,–,–,–,> 100 µM,> 100 µM,–,–,–,–,10 µM,"E. coli MBC (E. coli (K-12 MG1655) [4]; K-12, 20 h): > 100 µM; E. coli MIC (E. coli (K-12 MG1655) [4]; K-12, 20 h): > 100 µM"
